The values that follow come from patent US20240417410A1, “TRICYCLIC COMPOUNDS FOR THE TREATMENT OF CANCER” (Hoffmann-La Roche Inc., priority 2023, published 2024).

Data set [1] addresses KRAS G12V-BRAF complex (Homo sapiens (Human), UniProt P01116+P62937, G12V). The experiment in a line: KRAS G12V-BRAF with CYPA interaction assay (TR-FRET, selectivity test, Example 132). It is filed as biochemical. The procedure: (§1) In this example, TR-FRET was used to measure the compound or compound-CYPA dependent disruption of the KRAS G12V-BRAF complex to assess inhibition efficacy. The IC50 ratio between WT KRAS/HRAS/NRAS and KRAS G12V mutant was calculated as selective index, which indicated tolerability and safety profile. Disruption of WT KRAS/HRAS/NRAS-BRAF complex by compounds was detected respectively. In assay buffer containing 25 mM HEPES (PH-7.4,4-(2-hydroxyethyl)-1-piperazineethanesulfonic acid, Thermo, 15630080), 0.002% Tween20, 0.1% BSA, 100 mM NaCl, 5 mM MgCl2, 10 μM GMPPNP (Guanosine 5′-[β,γ-imido]triphosphate trisodium salt hydrate, Sigma, G0635), tagless CYPA and GMPPNP loaded 6His-RAS proteins, and GST-BRAF^RBD were mixed in a well of a 384-well assay plate at final concentrations of 50 nM, 6.25 nM and 1 nM, respectively. Compound was present in plate wells as a 16-point 3-fold dilution series starting at a final concentration of 10 μM and incubated for 3 hours. A mixture of MAb Anti-6His-XL665 (Cisbio, 61HISXLB) and Mab anti-GST-TB cryptate (Cisbio, 61GSTTLB) was then added at a final concentration of 6.67 nM and 0.21 nM, respectively, and the plate was incubated for an additional 1.5 hours. TR-FRET signal was read on a PHERstar FSX microplate reader (Ex320 nm, Em 665/615 nm). Compounds that facilitate disruption of the RAS-BRAF complex were identified as those eliciting a decrease in the TR-FRET ratio relative to DMSO control wells.
On the technique in general: TR-FRET usually uses a lanthanide donor and a delayed reading to cut background.

Data set [2] has as its system DUSP6. Kind of data set: Brain metastasis intracranial model, PD (DUSP6 in brain, qPCR). It is filed as in vivo, mouse. To be noted: 30 mg/kg once daily for 14 days, 6 hours post last dose, NCI-H1373-Luc model. The procedure:
Example 24, formulated in 10% DMSO, 10% Solutol HS15, 80% water, was dosed orally to 7-9 weeks female BALB/c nude mice (Vital River Co., LTD.) in […] at 30 mg/kg (dosing volume of 10 ml/kg) once daily for 14 days. Terminal tissue and blood harvest was performed at 6 hours after post last dose of test articles, using 4 mice per group. In brief, whole blood was collected into K2-EDTA tubes and subjected to centrifugation to separate plasma. Brains were collected, rinsed, and homogenized. Mice Brain were analyzed using qPCR using DUSP6 and ACTB TaqMan probes (ABI-4369016, ABI-4351370). All the targets mRNA expression levels were normalized to the housekeeping gene, and the data were represented as fold-changes according to the 2-ΔΔCt method, where […] and ΔΔCt=ΔCt treatment-ΔCt reference, ΔCt reference was chosen as the vehicle group. The data were interpreted by GraphPad Prism, and statistical analysis of difference in the each targets mRNA expression among the groups were conducted. For comparison between two groups, an independent sample t-test will be used. For comparison among three or more groups, a one-way ANOVA (Dunnett's multiple comparisons test) will be performed, p<0.05 was considered to be statistically significant.
For orientation: Quantitative PCR measures a nucleic acid by following its amplification.

The test system of data set [3] is DUSP6. The experiment in a line: SHP-77 xenograft single-dose PK/PD study, tumor DUSP6 levels. The data set is classed as in vivo, mouse. The settings on record: single oral dose of 30 mg/kg. From the text: The purpose of the study was to assess the anti-tumor activity in difficult KRAS mutated xenograft tumor model using SHP-77 (small cell lung cancer, SCLC; ATCC CRL-2195) by examining the time-dependent effects on MAPK pathway modulation and tumor suppression post-administration of Example 24 and reference compound A122.
Female CB17-SCID mice at 6-8 weeks old from Vital River Co., LTD. were used for these studies. In order to generate subcutaneous xenograft tumors, each mouse was inoculated at the right flank with tumor cells in 100 μL of PBS and Matrigel matrix in the right hind flank with 1×10^7 cells. Mouse health was monitored daily, and caliper measurements began when tumors were palpable. Tumor volume measurements were determined utilizing the formula 0.5×L×W^2 in which L refers to length and W refers to width of each tumor. When tumors reached an average tumor volume of approximately 100-200 mm^3 for efficacy study and 300-500 mm^3 for single-dose PK/PD study, mice were randomized into treatment groups.
Mice were treated by oral gavage at 10 mg/kg with either vehicle consisting of DMSO: Solutol HS15: water=10:10:80 (% v/v/v) or compounds (Example 24, A122) in vehicle at indicated doses. For efficacy studies, animals were orally administered daily, tumor volumes and body weights were measured 3 times per week. Study day on efficacy plots indicates the day after which compound treatment was initiated. For single-dose PK/PD study, at the indicated time points after a single dose of Example 24 at the indicated dose levels, tumor samples were collected for PD analysis. RNA extraction and analysis of DUSP6 levels by in tumor tissue were performed as described in Example 134.

The test system of data set [4] is WT KRAS-BRAF complex. Kind of data set: WT KRAS-BRAF with CYPA interaction assay (TR-FRET). The data set is classed as biochemical. The procedure:
as §1

In data set [5] the test system is SW480 (KRAS G12V). The experiment in a line: Washout viability assay. It is filed as cell-based. The settings on record: for IC50: Homo sapiens; for IC50 shift fold: washout vs no-washout. The protocol:
(§2) Cancer cell lines NCI-H358, NCI-H2122, and SW480 (purchased from ATCC) were cultured in RPMI1640 (Thermo Fisher Scientific) medium plus 10% Fetal Bovine Serum (FBS, Thermo Fisher Scientific, 2.5 μg/mL puromycin and 1% Antibiotic-Antimycotic (Thermo Fisher Scientific) and plated at a density of 2,000 cells per well in 96-well assay plates (Corning-3699) and incubated overnight. On the assay day, compounds diluted to a final DMSO concentration of 0.5% were added to the wells. Following a 4-hour incubation period, the culture medium was removed, and the cells were washed three times with RPMI1640 medium only before being cultured in the abovementioned culture medium (RPMI1640+10% FBS+1% antibiotic-antimycotic). After 72 hours, a tenth of the volume of Cell Counting Kit-8 (Dojindo-CK04) was added to each well. The absorbance was measured (OD450 minus OD650) using an EnVision plate reader after a further 2-hour incubation. The IC50 values were calculated by applying a four-parameter sigmoidal concentration-response curve fit to the data.

Data set [6] relates to NCI-H2122 (KRAS G12C). Kind of data set: Washout viability assay. The data set is classed as cell-based. The settings on record: for IC50: Homo sapiens; for IC50 shift fold: washout vs no-washout. The protocol:
as §2

Data set [7] deals with NCI-H358 (KRAS G12C). The experiment in a line: Washout viability assay. It is filed as cell-based. To be noted: for IC50: Homo sapiens; for IC50 shift fold: washout vs no-washout. The procedure: as §2
The mark [8] stands for this setting: 4-hour treatment, three washes, 72 hours, read-out: Washout IC50.
[9] abbreviates: NCI-H2122 (KRAS G12C), 4-hour treatment, three washes, 72 hours, read-out: Washout IC50.
Where [10] appears, read: NCI-H2122, KRAS (G12C), read-out: No-washout IC50.
[11] abbreviates: NCI-H358 (KRAS G12C), 4-hour treatment, three washes, 72 hours, read-out: Washout IC50.
The mark [12] stands for this setting: NCI-H358, KRAS (G12C), read-out: No-washout IC50.

Read-outs that look alike come from different tables or passages of the source.

Sequence of KRAS G12V-BRAF complex (P01116-2 other isoform, or with tags, fused parts or gaps G12V): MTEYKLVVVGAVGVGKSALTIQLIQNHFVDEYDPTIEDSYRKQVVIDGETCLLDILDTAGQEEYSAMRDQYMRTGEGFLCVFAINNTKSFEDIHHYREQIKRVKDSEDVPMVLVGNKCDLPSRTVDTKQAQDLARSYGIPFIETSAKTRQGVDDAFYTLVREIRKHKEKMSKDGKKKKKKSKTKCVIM
Sequence of KRAS G12V-BRAF complex (P62937 whole entry): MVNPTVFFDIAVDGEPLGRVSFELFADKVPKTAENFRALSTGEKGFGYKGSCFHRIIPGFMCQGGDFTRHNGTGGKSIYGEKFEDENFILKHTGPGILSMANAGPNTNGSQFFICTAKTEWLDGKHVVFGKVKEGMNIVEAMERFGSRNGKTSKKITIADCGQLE

Take `CO[C@@H](C)c1ncc(N2CCN(C)CC2)cc1-c1c2c3cc(cc4c3n1CCC4)-c1csc(n1)C[C@H](NC(=O)[C@H]1[C@H](C)[C@@H]1C)C(=O)N1CCC[C@H](N1)C(=O)OCC(C)(C)C2` (atropisomer, axis not shown; (M)) [Example 24, (1r,2R,3S)-N-[(7S,13S)-(20M)-20-[2-[(1S)-1-methoxyethyl]-5-(4-methylpiperazin-1-yl)-3-pyridyl]-17,17-dimethyl-8,14-dioxo-15-oxa-4-thia-9,21,30,31-tetrazahexacyclo[23.3.1.1^2,5.1^9,13.0^19,27.0^21,26]hentriaconta-1 (28),2,5 (31), 19,25 (29),26-hexaen-7-yl]-2,3-dimethyl-cyclopropanecarboxamide]: the IC50 (as a rule, the concentration that inhibits the measured activity by half) was 7 nM in data set [1]; 8.4 nM in data set [5] (setting [8]); 1.3 nM in data set [5] (read-out: No-washout IC50); 9 nM in data set [6] (setting [9]); 6.7 nM in data set [6] (setting [10]); 5.9 nM in data set [7] (setting [11]). Besides, the IC50 in data set [7] (setting [12]) worked out at 1 nM. In addition, the “MAPK activation (DUSP6) in the brain” value in data set [2] is listed as “significantly decreased”. For the same compound, the “tumor DUSP6 levels remaining” value was found to be 3.9% in data set [3] (24 h), 31% in data set [3] (48 hours) and 73.7% in data set [3] (72 hours). Also, the “Selectivity Index (IC50 ratio) WT KRAS/KRAS G12V” value in data set [4] turned out to be 4.6. Besides, the IC50 shift fold in data set [5] is given as 6.7 fold; in data set [6] (NCI-H2122 (KRAS G12C)), 1.3 fold; in data set [7] (NCI-H358 (KRAS G12C)), 5.6 fold.
Turning to `CCn1c(-c2cc(N3CCN(C)CC3)cnc2[C@H](C)OC)c2c3cc(ccc31)-c1csc(n1)C[C@H](NC(=O)[C@H]1C[C@@H]1C)C(=O)N1CCC[C@H](N1)C(=O)OCC(C)(C)O2` [Example A122, reference compound], the IC50 in data set [1] came to 8 nM; in data set [5] (setting [8]), 47.3 nM; in data set [5] (read-out: No-washout IC50), 2.4 nM; in data set [6] (setting [9]), 29 nM; in data set [6] (setting [10]), 8 nM; in data set [7] (setting [11]), 32.1 nM. The IC50 in data set [7] (setting [12]) stood at 2 nM. For the same compound, the “tumor DUSP6 levels remaining” value in data set [3] (24 h) is 4.3%; in data set [3] (48 hours), 67%; in data set [3] (72 hours), 126%. Further, the IC50 shift fold is reported as 19.7 fold in data set [5], 3.6 fold in data set [6] (NCI-H2122 (KRAS G12C)) and 16.2 fold in data set [7] (NCI-H358 (KRAS G12C)).
